{
  "source": "paper PMC9611598",
  "about": "“Cyclodextrin Derivatives as Promising Solubilizers to Enhance the Biological Activity of Rosmarinic Acid” (Pharmaceutics, 2022)",
  "key": {"tyrosinase": {"biological_target": "T1, tyrosinase", "T1 construct": "gene PPO3; mushroom tyrosinase is a guess from usual assay practice", "experiment": "L-DOPA oxidation, […] nm", "type": "biochemical", "details": "2.0 mM L-DOPA stock, phosphate buffer pH 6.8, room temperature; RA in 50% DMSO, 0.05-2.5 mg/mL test solutions, 25 µL per well; value may refer to prepared solution, not final well concentration"}, "[1]": {"biological_target": "AChE (acetylcholinesterase)", "experiment": "Ellman assay, […] nm", "type": "biochemical", "details": "acetylthiocholine iodide, DTNB, Tris-HCl pH 8.0, room temperature; RA in DMSO, 2.5-25 mg/mL test solutions, 20 µL per well; value may refer to prepared solution, not final well concentration"}},
  "data": [
    {"smiles": "O=C(/C=C/c1ccc(O)c(O)c1)O[C@H](Cc1ccc(O)c(O)c1)C(=O)O", "note": "[RA, rosmarinic acid]", "values": [
      {"measurement": "IC50", "setting": "tyrosinase", "value": "1591 ± 77", "unit": "µg/mL"},
      {"measurement": "IC50", "setting": "[1]", "value": "8983 ± 162", "unit": "µg/mL"}
    ]}
  ]
}
